Experimental data as given in patent publication US20230183292A1, “IMMUNOMODULATORS” (priority 2020, published 2023).
Starred links: 1 amine or outer side, 2 acyl side, 3 side chain; linkers in the order of their positions; H or OH if unused. Positions of bridges follow the written chain, without caps; N, C: chain ends. Non-standard residues stand in square brackets, D forms with d. Residues, ends and D or L forms follow the SMILES beside them. *: point of attachment. Cholyl = C[C@H](CCC(=O)*)[C@H]1CC[C@H]2[C@@H]3[C@H](O)C[C@@H]4C[C@H](O)CC[C@]4(C)[C@H]3C[C@H](O)[C@]12C; X18 = CCN(CC)CCCNC(=O)Cn1cc(C[C@H](N[*:1])C(=O)[*:2])c2ccccc21; Hyp = O=C(O)[C@@H]1C[C@@H](O)CN1; NMeNle = CCCC[C@H](NC)C(=O)O; NMeA = CN[C@@H](C)C(=O)O; Dab = NCC[C@H](N)C(=O)O; Dap = NC[C@H](N)C(=O)O

target: T1, PD-1/PD-L1 (Homo sapiens, UniProt Q9NZQ7); test: PD-1/PD-L1 Homogenous Time-Resolved Fluorescence (HTRF) binding assay; settings: HTRF IC50, PD-L1-His 10 nM, PD-1-Ig 20 nM
T1 construct: TVMV protease site (C); made in house; host or cells: HEK293T cells
Method in brief: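 Inhibitors pre-incubated 15 min with PD-L1-His (10 nM final) in dPBS, 0.1% BSA, 0.05% Tween-20, then 15 min with PD-1-Ig (20 nM final). Eu-cryptate anti-Ig (1 nM) and APC anti-His (20 nM) added, 30 min equilibration; HTRF 665/620 nm ratio. Human ECD proteins from HEK293T.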

T1 sequence (Q9NZQ7 18-239): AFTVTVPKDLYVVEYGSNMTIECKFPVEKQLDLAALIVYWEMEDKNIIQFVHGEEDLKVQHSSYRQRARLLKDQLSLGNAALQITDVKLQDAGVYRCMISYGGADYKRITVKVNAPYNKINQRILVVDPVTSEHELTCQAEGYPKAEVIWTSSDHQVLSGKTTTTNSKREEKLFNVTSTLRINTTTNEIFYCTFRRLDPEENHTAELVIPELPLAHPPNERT

In the case of `CCCC[C@H]1C(=O)N(C)[C@@H](CCCC)C(=O)N[C@@H](CC(C)C)C(=O)N[C@H](C(=O)NCC(N)=O)CSCC(=O)N[C@@H](Cc2ccc(O)cc2)C(=O)N(C)[C@@H](C)C(=O)N[C@@H](CC(N)=O)C(=O)N2CCC[C@H]2CN[C@@H](CNC(=O)CC[C@@H](C)[C@H]2CC[C@H]3[C@@H]4[C@H](O)C[C@@H]5C[C@H](O)CC[C@]5(C)[C@H]4C[C@H](O)[C@]23C)C(=O)N[C@@H](CC(C)C)C(=O)N2C[C@H](O)C[C@H]2C(=O)N[C@@H](Cc2c[nH]c3ccccc23)C(=O)N[C@@H](CCNC(=O)CC[C@@H](C)[C@H]2CC[C@H]3[C@@H]4[C@H](O)C[C@@H]5C[C@H](O)CC[C@]5(C)[C@H]4C[C@H](O)[C@]23C)C(=O)N[C@@H](Cc2cn(CC(=O)Oc3ccccc3)c3ccccc23)C(=O)N1C` [Example 2007], the IC50 is reported as 720 nM.

same assay, conditions: PD-L1-His 10 nM, PD-1-Ig 20 nM; read-out: HTRF IC50

Going from `CCCC[C@H]1C(=O)N(C)[C@@H](CCCC)C(=O)N[C@@H](CC(C)C)C(=O)N[C@H](C(=O)NCC(N)=O)CSCC(=O)N[C@@H](Cc2ccc(O)cc2)C(=O)N(C)[C@@H](C)C(=O)N[C@@H](CC(N)=O)C(=O)N2CCC[C@H]2CN[C@@H](CNC(=O)CC[C@@H](C)[C@H]2CC[C@H]3[C@@H]4[C@H](O)C[C@@H]5C[C@H](O)CC[C@]5(C)[C@H]4C[C@H](O)[C@]23C)C(=O)N[C@@H](CC(C)C)C(=O)N2C[C@H](O)C[C@H]2C(=O)N[C@@H](Cc2c[nH]c3ccccc23)C(=O)N[C@@H](CCNC(=O)CC[C@@H](C)[C@H]2CC[C@H]3[C@@H]4[C@H](O)C[C@@H]5C[C@H](O)CC[C@]5(C)[C@H]4C[C@H](O)[C@]23C)C(=O)N[C@@H](Cc2cn(CC(=O)OC3CC3)c3ccccc23)C(=O)N1C` [Example 2003] to `CCCC[C@H]1C(=O)N(C)[C@@H](CCCC)C(=O)N[C@@H](CC(C)C)C(=O)N[C@H](C(=O)NCC(N)=O)CSCC(=O)N[C@@H](Cc2ccc(O)cc2)C(=O)N(C)[C@@H](C)C(=O)N[C@@H](CC(N)=O)C(=O)N2CCC[C@H]2CN[C@@H](CNC(=O)CC[C@@H](C)[C@H]2CC[C@H]3[C@@H]4[C@H](O)C[C@@H]5C[C@H](O)CC[C@]5(C)[C@H]4C[C@H](O)[C@]23C)C(=O)N[C@@H](CC(C)C)C(=O)N2C[C@H](O)C[C@H]2C(=O)N[C@@H](Cc2c[nH]c3ccccc23)C(=O)N[C@@H](CCNC(=O)CC[C@@H](C)[C@H]2CC[C@H]3[C@@H]4[C@H](O)C[C@@H]5C[C@H](O)CC[C@]5(C)[C@H]4C[C@H](O)[C@]23C)C(=O)N[C@@H](Cc2cn(CC(=O)NC3CC3)c3ccccc23)C(=O)N1C` [Example 2009], the IC50 rises from 970 nM to 2900 nM (3-fold).

First: CCCC[C@H]1C(=O)N(C)[C@@H](CCCC)C(=O)N[C@@H](CC(C)C)C(=O)N[C@H](C(=O)NCC(N)=O)CSCC(=O)N[C@@H](Cc2ccc(O)cc2)C(=O)N(C)[C@@H](C)C(=O)N[C@@H](CC(N)=O)C(=O)N2CCC[C@H]2CN[C@@H](CNC(=O)CC[C@@H](C)[C@H]2CC[C@H]3[C@@H]4[C@H](O)C[C@@H]5C[C@H](O)CC[C@]5(C)[C@H]4C[C@H](O)[C@]23C)C(=O)N[C@@H](CC(C)C)C(=O)N2C[C@H](O)C[C@H]2C(=O)N[C@@H](Cc2c[nH]c3ccccc23)C(=O)N[C@@H](CCNC(=O)CC[C@@H](C)[C@H]2CC[C@H]3[C@@H]4[C@H](O)C[C@@H]5C[C@H](O)CC[C@]5(C)[C@H]4C[C@H](O)[C@]23C)C(=O)N[C@@H](Cc2cn(CC(=O)OCCCO)c3ccccc23)C(=O)N1C [Example 2004]
Second: CCCC[C@H]1C(=O)N(C)[C@@H](CCCC)C(=O)N[C@@H](CC(C)C)C(=O)N[C@H](C(=O)NCC(N)=O)CSCC(=O)N[C@@H](Cc2ccc(O)cc2)C(=O)N(C)[C@@H](C)C(=O)N[C@@H](CC(N)=O)C(=O)N2CCC[C@H]2CN[C@@H](CNC(=O)CC[C@@H](C)[C@H]2CC[C@H]3[C@@H]4[C@H](O)C[C@@H]5C[C@H](O)CC[C@]5(C)[C@H]4C[C@H](O)[C@]23C)C(=O)N[C@@H](CC(C)C)C(=O)N2C[C@H](O)C[C@H]2C(=O)N[C@@H](Cc2c[nH]c3ccccc23)C(=O)N[C@@H](CCNC(=O)CC[C@@H](C)[C@H]2CC[C@H]3[C@@H]4[C@H](O)C[C@@H]5C[C@H](O)CC[C@]5(C)[C@H]4C[C@H](O)[C@]23C)C(=O)N[C@@H](Cc2cn(CC(=O)OCCO)c3ccccc23)C(=O)N1C [Example 2005]
The IC50 of the first is 1.7-fold higher: 350 nM for the first, 210 nM for the second. The second is the more potent here.

Going from `CCCC[C@H]1C(=O)N(C)[C@@H](CCCC)C(=O)N[C@@H](CC(C)C)C(=O)N[C@H](C(=O)NCC(N)=O)CSCC(=O)N[C@@H](Cc2ccc(O)cc2)C(=O)N(C)[C@@H](C)C(=O)N[C@@H](CC(N)=O)C(=O)N2CCC[C@H]2CN[C@@H](CNC(=O)CC[C@@H](C)[C@H]2CC[C@H]3[C@@H]4[C@H](O)C[C@@H]5C[C@H](O)CC[C@]5(C)[C@H]4C[C@H](O)[C@]23C)C(=O)N[C@@H](CC(C)C)C(=O)N2C[C@H](O)C[C@H]2C(=O)N[C@@H](Cc2c[nH]c3ccccc23)C(=O)N[C@@H](CCNC(=O)CC[C@@H](C)[C@H]2CC[C@H]3[C@@H]4[C@H](O)C[C@@H]5C[C@H](O)CC[C@]5(C)[C@H]4C[C@H](O)[C@]23C)C(=O)N[C@@H](Cc2cn(CC(=O)OCCOCCO)c3ccccc23)C(=O)N1C` [Example 2006] to `CCCC[C@H]1C(=O)N(C)[C@@H](CCCC)C(=O)N[C@@H](CC(C)C)C(=O)N[C@H](C(=O)NCC(N)=O)CSCC(=O)N[C@@H](Cc2ccc(O)cc2)C(=O)N(C)[C@@H](C)C(=O)N[C@@H](CC(N)=O)C(=O)N2CCC[C@H]2CN[C@@H](CNC(=O)CC[C@@H](C)[C@H]2CC[C@H]3[C@@H]4[C@H](O)C[C@@H]5C[C@H](O)CC[C@]5(C)[C@H]4C[C@H](O)[C@]23C)C(=O)N[C@@H](CC(C)C)C(=O)N2C[C@H](O)C[C@H]2C(=O)N[C@@H](Cc2c[nH]c3ccccc23)C(=O)N[C@@H](CCNC(=O)CC[C@@H](C)[C@H]2CC[C@H]3[C@@H]4[C@H](O)C[C@@H]5C[C@H](O)CC[C@]5(C)[C@H]4C[C@H](O)[C@]23C)C(=O)N[C@@H](Cc2cn(CC(=O)NCC(F)(F)F)c3ccccc23)C(=O)N1C` [Example 2010], the IC50 rises from 200 nM to 4700 nM (24-fold).

First: CCCC[C@H]1C(=O)N(C)[C@@H](CCCC)C(=O)N[C@@H](CC(C)C)C(=O)N[C@H](C(=O)NCC(N)=O)CSCC(=O)N[C@@H](Cc2ccc(O)cc2)C(=O)N(C)[C@@H](C)C(=O)N[C@@H](CC(N)=O)C(=O)N2CCC[C@H]2C(=O)N[C@@H](CNC(=O)CC[C@@H](C)[C@H]2CC[C@H]3[C@@H]4[C@H](O)C[C@@H]5C[C@H](O)CC[C@]5(C)[C@H]4C[C@H](O)[C@]23C)C(=O)N[C@@H](CC(C)C)C(=O)N2C[C@H](O)C[C@H]2C(=O)N[C@@H](Cc2c[nH]c3ccccc23)C(=O)N[C@@H](CCNC(=O)CC[C@@H](C)[C@H]2CC[C@H]3[C@@H]4[C@H](O)C[C@@H]5C[C@H](O)CC[C@]5(C)[C@H]4C[C@H](O)[C@]23C)C(=O)N[C@@H](Cc2cn(CC(=O)NCCCN(CC)CC)c3ccccc23)C(=O)N1C [Example 2008] ({CH2CO}-Y[NMeA]NP[Dap](Cholyl)L[Hyp]W[Dab](Cholyl)[X18][NMeNle][NMeNle]LCG-NH2; thioether N-14)
Second: CCCCOC(=O)Cn1cc(C[C@@H]2NC(=O)[C@H](CCNC(=O)CC[C@@H](C)[C@H]3CC[C@H]4[C@@H]5C(=O)C[C@@H]6CC(=O)CC[C@]6(C)[C@H]5CC(=O)[C@]34C)NC(=O)[C@H](Cc3c[nH]c4ccccc34)NC(=O)[C@@H]3C[C@@H](O)CN3C(=O)[C@H](CC(C)C)NC(=O)[C@H](CNC(=O)CC[C@@H](C)[C@H]3CC[C@H]4[C@@H]5C(=O)C[C@@H]6CC(=O)CC[C@]6(C)[C@H]5CC(=O)[C@]34C)NC[C@@H]3CCCN3C(=O)[C@H](CC(N)=O)NC(=O)[C@H](C)N(C)C(=O)[C@H](Cc3ccc(O)cc3)NC(=O)CSC[C@@H](C(=O)NCC(N)=O)NC(=O)[C@H](CC(C)C)NC(=O)[C@H](CCCC)N(C)C(=O)[C@H](CCCC)N(C)C2=O)c2ccccc21 [Example 2013]
The IC50 of the first is 2.3-fold higher: 95 nM for the first, 41 nM for the second.

Compound `CCCC[C@H]1C(=O)N(C)[C@@H](CCCC)C(=O)N[C@@H](CC(C)C)C(=O)N[C@H](C(=O)NCC(N)=O)CSCC(=O)N[C@@H](Cc2ccc(O)cc2)C(=O)N(C)[C@@H](C)C(=O)N[C@@H](CC(N)=O)C(=O)N2CCC[C@H]2CN[C@@H](CNC(=O)CC[C@@H](C)[C@H]2CC[C@H]3[C@@H]4C(=O)C[C@@H]5CC(=O)CC[C@]5(C)[C@H]4CC(=O)[C@]23C)C(=O)N[C@@H](CC(C)C)C(=O)N2C[C@H](O)C[C@H]2C(=O)N[C@@H](Cc2c[nH]c3ccccc23)C(=O)N[C@@H](CCNC(=O)CC[C@@H](C)[C@H]2CC[C@H]3[C@@H]4C(=O)C[C@@H]5CC(=O)CC[C@]5(C)[C@H]4CC(=O)[C@]23C)C(=O)N[C@@H](Cc2cn(CC(=O)OC3CC3)c3ccccc23)C(=O)N1C` [Example 2011] has an IC50 of 35 nM.
With `CCCC[C@H]1C(=O)N(C)[C@@H](CCCC)C(=O)N[C@@H](CC(C)C)C(=O)N[C@H](C(=O)NCC(N)=O)CSCC(=O)N[C@@H](Cc2ccc(O)cc2)C(=O)N(C)[C@@H](C)C(=O)N[C@@H](CC(N)=O)C(=O)N2CCC[C@H]2CN[C@@H](CNC(=O)CC[C@@H](C)[C@H]2CC[C@H]3[C@@H]4C(=O)C[C@@H]5CC(=O)CC[C@]5(C)[C@H]4CC(=O)[C@]23C)C(=O)N[C@@H](CC(C)C)C(=O)N2C[C@H](O)C[C@H]2C(=O)N[C@@H](Cc2c[nH]c3ccccc23)C(=O)N[C@@H](CCNC(=O)CC[C@@H](C)[C@H]2CC[C@H]3[C@@H]4C(=O)C[C@@H]5CC(=O)CC[C@]5(C)[C@H]4CC(=O)[C@]23C)C(=O)N[C@@H](Cc2cn(CC(=O)OC3CC3)c3ccccc23)C(=O)N1C` [Example 2012] the IC50 was 27 nM.
